Data reported in patent publication US20240246969A1, “HETEROCYCLIC DERIVATIVES AS CAMKK2 INHIBITORS” (Bristol-Myers Squibb Company, priority 2021, published 2024).

Key:
[1] = tested on: phosphorylation of CaMKK2 substrate AMPK at Thr172 in A549 lung carcinoma cells; assay: Cell-based phosphorylation assay (Phospho-AMPK Thr172 HTRF); conditions: Homo sapiens; A549 cells, compounds 4 hours, 3 uM Calcium Ionophore 30 minutes; read-out: Cellular IC50 Phosphorylation
Protocol: Cellular CaMKK2 inhibition by compounds was measured by monitoring the phosphorylation of CaMKK2 substrate AMPK at Thr172 in A549 lung carcinoma cells (ATCC) using CISBIO Phospho-AMPK (Thr172) HTRF kit. A549 cells were plated in 96 well plates at 8000 cells/well in DMEM+10% FBS+1× pen/step+1×NEAA and incubated at 37° C. overnight in a CO2 incubator. Cells were then treated with compounds for 4 hours. After cells were stimulated by 3 uM Calcium Ionophore (Sigma) at 37° C. for 30 minutes, cells were washed and then lysed with cell lysis buffer (CisBio) for 30 minutes. […] Plates were incubated overnight and then read using HTRF mode by BMG PHERAstarFS.

[2] = tested on: A549 lung carcinoma cells; assay: Cell proliferation assay (CellTiter 96 Aqueous); assay type: cell-based; conditions: Homo sapiens, compounds 48 hours, read-out: Cellular IC50 Proliferation
Protocol: Proliferation was measured using CellTiter 96 Aqueous Non-Radioactive Cell Proliferation Assay Kit (Promega), which determines the number of viable cells in culture based on quantitation of dehydrogenase enzymes, as an indicator of metabolically active cells. A549 lung carcinoma cells were seeded at 2,000 cells/well in a 96-well tissue culture treated plate in DMEM+10% FBS+1× pen/step+1×NEAA and incubated at 37° C. overnight in a CO2 incubator. Cells were treated with compounds for 48 hours. Then viability was measured using CellTiter 96 Aqueous Non-Radioactive Cell Proliferation Assay Kit (Promega). Detection was performed using Biotek Cytation 5 Cell Imaging Multi Mode plate reader.

[3] = biological target: CaMKK2 (Homo sapiens, UniProt Q96RR4); assay: CaMKK2 binding assay (LanthaScreen TR-FRET)
CaMKK2, sequence (Q96RR4 whole entry): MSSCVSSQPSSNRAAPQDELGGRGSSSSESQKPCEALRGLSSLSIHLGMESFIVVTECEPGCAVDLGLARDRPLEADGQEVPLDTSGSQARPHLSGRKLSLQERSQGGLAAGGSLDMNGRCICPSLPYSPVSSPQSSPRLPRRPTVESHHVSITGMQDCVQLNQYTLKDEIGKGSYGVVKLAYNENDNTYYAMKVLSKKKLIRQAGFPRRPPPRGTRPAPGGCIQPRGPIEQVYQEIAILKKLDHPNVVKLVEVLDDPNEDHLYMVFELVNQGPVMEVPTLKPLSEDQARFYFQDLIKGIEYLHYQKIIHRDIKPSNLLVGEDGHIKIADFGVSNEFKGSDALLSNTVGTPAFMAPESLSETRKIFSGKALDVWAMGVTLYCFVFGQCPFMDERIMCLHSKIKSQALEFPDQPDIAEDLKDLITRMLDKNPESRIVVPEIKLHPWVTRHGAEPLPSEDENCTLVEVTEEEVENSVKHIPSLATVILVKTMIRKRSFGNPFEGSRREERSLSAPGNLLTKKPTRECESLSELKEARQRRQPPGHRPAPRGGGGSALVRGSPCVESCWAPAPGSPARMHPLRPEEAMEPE
Protocol: The ability of test compounds to bind and inhibit the activity of CaMKK2 were determined using a binding assay using LanthaScreent (Thermofisher) detection reagents in a 384-well plate format using the following assay buffer: 50 mM HEPES (pH7.5), 10 mM MgCl2, 1 mM EGTA, and 0.01% Brij-35.
A 10-point serial dilution of inhibitor compound in 0.5% DMSO was added to each well of the plate. The final assay volume in well was 15 uL. […] A ratio was calculated from the 2 readouts and fitted to a 4-parameter fit to determine the binding IC50.

IC50 [1] | IC50 [2] | IC50 [3] | SMILES
< 100 nM | > 10000 nM | < 100 nM | O=C(O)c1ccc(-n2ccc3ncc(-c4ccccc4)nc32)cc1C1CCCC1 [Example 1, 2-Cyclopentyl-4-(3-phenylpyrrolo[2,3-b]pyrazin-5-yl)benzoic Acid]
< 100 nM | > 10000 nM | < 100 nM | O=C(O)c1ccc(-n2ccc3ncc(-c4cccc(C5CC5)c4)nc32)cc1C1CCCC1 [Example 2, 2-Cyclopentyl-4-[3-(3-cyclopropylphenyl)pyrrolo[2,3-b]pyrazin-5-yl]benzoic Acid]
100 to 1000 nM | > 10000 nM | < 100 nM | O=C(O)c1ccc(-c2ccnc3cc(-c4ccccc4)nn23)cc1C1CCCC1 [Example 2.2, 2-Cyclopentyl-4-(2-phenylpyrazolo[1,5-a]pyrimidin-7-yl)benzoic Acid]
100 to 1000 nM | > 10000 nM | < 100 nM | O=C(O)c1ccc(-c2ccnc3cc(-c4ccccc4F)nn23)cc1C1CCCC1 [Example 2.6, 2-Cyclopentyl-4-(2-(2-fluorophenyl)pyrazolo[1,5-a]pyrimidin-7-yl)benzoic Acid]
100 to 1000 nM | > 10000 nM | < 100 nM | CCOc1cccc(-c2cc3nccc(-c4ccc(C(=O)O)c(C5CCCC5)c4)n3n2)c1 [Example 2.10, 2-Cyclopentyl-4-(2-(3-ethoxyphenyl)pyrazolo[1,5-a]pyrimidin-7-yl)benzoic Acid]
100 to 1000 nM | > 10000 nM | < 100 nM | O=C(O)c1ccc(-c2ccnc3cc(-c4cccc(OCC5CC5)c4)nn23)cc1C1CCCC1 [Example 2.11, 2-Cyclopentyl-4-(2-(3-(cyclopropylmethoxy)phenyl)pyrazolo[1,5-a]pyrimidin-7-yl)benzoic Acid]
100 to 1000 nM | > 10000 nM | < 100 nM | O=C(O)c1ccc(-n2ccc3ncc(-c4cccc(Cl)c4)nc32)cc1C1CCCC1 [Example 3, 4-[3-(3-Chlorophenyl)pyrrolo[2,3-b]pyrazin-5-yl]-2-cyclopentyl-benzoic Acid]
100 to 1000 nM | > 10000 nM | < 100 nM | O=C(O)c1ccc(-c2ccnc3cn(-c4ccc(F)cc4)nc23)cc1C1CCCC1 [Example 3.1, 2-Cyclopentyl-4-[2-(4-fluorophenyl)pyrazolo[4,3-b]pyridin-7-yl]benzoic Acid]
< 100 nM | > 10000 nM | < 100 nM | O=C(O)c1ccc(-c2ccnc3cn(-c4ccccc4)nc23)cc1C1CCCC1 [Example 3.2, 2-Cyclopentyl-4-(2-phenyl-2H-pyrazolo[4,3-b]pyridin-7-yl)benzoic Acid]
100 to 1000 nM | > 10000 nM | < 100 nM | Cc1cccc(-n2cc3nccc(-c4ccc(C(=O)O)c(C5CCCC5)c4)c3n2)c1 [Example 3.3, 2-Cyclopentyl-4-(2-(m-tolyl)-2H-pyrazolo[4,3-b]pyridin-7-yl)benzoic Acid]
< 100 nM | > 10000 nM | < 100 nM | O=C(O)c1ccc(-c2ccnc3cn(-c4cccc(C5CC5)c4)nc23)cc1C1CCCC1 [Example 3.4, 2-Cyclopentyl-4-(2-(3-cyclopropylphenyl)-2H-pyrazolo[4,3-b]pyridin-7-yl)benzoic Acid]
100 to 1000 nM | > 10000 nM | < 100 nM | O=C(O)c1ccc(-c2c(F)cnc3cn(-c4ccc(F)cc4)nc23)cc1C1CCCC1 [Example 3.5, 2-Cyclopentyl-4-(6-fluoro-2-(4-fluorophenyl)-2H-pyrazolo[4,3-b]pyridin-7-yl)benzoic Acid]
100 to 1000 nM | > 10000 nM | < 100 nM | O=C(O)c1ccc(-c2ccnc3cn(-c4cccc(Cl)c4)nc23)cc1C1CCCC1 [Example 3.6, 4-(2-(3-Chlorophenyl)-2H-pyrazolo[4,3-b]pyridin-7-yl)-2-cyclopentylbenzoic Acid]
< 100 nM | > 10000 nM | < 100 nM | Cc1cc(Cl)cc(-n2cc3ncc(F)c(-c4ccc(C(=O)O)c(C5CCCC5)c4)c3n2)c1 [Example 3.7, 4-(2-(3-Chloro-5-methylphenyl)-6-fluoro-2H-pyrazolo[4,3-b]pyridin-7-yl)-2-cyclopentylbenzoic Acid]
100 to 1000 nM | > 10000 nM | < 100 nM | O=C(O)c1ccc(-c2c(F)cnc3cn(-c4cccc(C(F)(F)F)c4)nc23)cc1C1CCCC1 [Example 3.9, 2-Cyclopentyl-4-(6-fluoro-2-(3-(trifluoromethyl)phenyl)-2H-pyrazolo[4,3-b]pyridin-7-yl)benzoic Acid]
100 to 1000 nM | > 10000 nM | < 100 nM | O=C(O)c1ccc(-c2c(F)cnc3cn(-c4cc(F)cc(F)c4)nc23)cc1C1CCCC1 [Example 3.12, 2-Cyclopentyl-4-(2-(3,5-difluorophenyl)-6-fluoro-2H-pyrazolo[4,3-b]pyridin-7-yl)benzoic Acid]
< 100 nM | > 10000 nM | < 100 nM | O=C(O)c1ccc(-c2c(F)cnc3cn(-c4cc(Cl)cc(Cl)c4)nc23)cc1C1CCCC1 [Example 3.16, 2-Cyclopentyl-4-(2-(3,5-dichlorophenyl)-6-fluoro-2H-pyrazolo[4,3-b]pyridin-7-yl)benzoic Acid]
– | – | < 100 nM | CCNc1cc(-n2ccc3ncc(-c4ccc5cn(C)nc5c4)nc32)ccc1C(=O)O [Example 16, 2-(Ethylamino)-4-(3-(2-methyl-2H-indazol-6-yl)-5H-pyrrolo[2,3-b]pyrazin-5-yl)benzoic Acid]
– | – | < 100 nM | Cn1cc2ccc(-c3cnc4ccn(-c5ccc(C(=O)O)c(NCC6CC6)c5)c4n3)cc2n1 [Example 17, 2-((Cyclopropylmethyl)amino)-4-(3-(2-methyl-2H-indazol-6-yl)-5H-pyrrolo[2,3-b]pyrazin-5-yl)benzoic Acid]
– | – | 100 to 1000 nM | O=C(NS(=O)(=O)C(F)(F)F)c1ccc(-n2ccc3ncc(C4CC4)nc32)cc1C1CCCC1 [Example 21, 2-Cyclopentyl-4-(3-cyclopropyl-5H-pyrrolo[2,3-b]pyrazin-5-yl)-N-((trifluoromethyl)sulfonyl)benzamide]
– | – | 1000 to 10000 nM | N#Cc1ccc(-n2ccc3ncc(-c4ccccc4)nc32)cc1C1CCCC1 [Example 22, 2-Cyclopentyl-4-(3-phenyl-5H-pyrrolo[2,3-b]pyrazin-5-yl)benzonitrile]
– | – | < 100 nM | c1ccc(-c2cnc3ccn(-c4ccc(-c5nn[nH]n5)c(C5CCCC5)c4)c3n2)cc1 [Example 23, 5-(3-Cyclopentyl-4-(2H-tetrazol-5-yl)phenyl)-3-phenyl-5H-pyrrolo[2,3-b]pyrazine]
– | – | < 100 nM | Cc1cc(C)cc(-c2cnc3ccn(-c4ccc(C(=O)O)c(NC5CNC5)c4)c3n2)c1 [Example 25, 2-(azetidin-3-ylamino)-4-(3-(3,5-dimethylphenyl)-5H-pyrrolo[2,3-b]pyrazin-5-yl)benzoic Acid]
– | – | < 100 nM | Cc1cc(C)cc(-c2cnc3ccn(-c4ccc(C(=O)O)c(CC5CNC5)c4)c3n2)c1 [Example 27, 2-(azetidin-3-ylmethyl)-4-(3-(3,5-dimethylphenyl)-5H-pyrrolo[2,3-b]pyrazin-5-yl) benzoic Acid]
– | – | < 100 nM | Cc1cc(C)cc(-c2cnc3ccn(-c4ccc(C(=O)O)c(C5CCNCC5)c4)c3n2)c1 [Example 29, 4-(3-(3,5-dimethylphenyl)-5H-pyrrolo[2,3-b]pyrazin-5-yl)-2-(piperidin-4-yl)benzoic Acid]
– | – | < 100 nM | Cc1cc(C)cc(-c2cnc3ccn(-c4ccc(C(=O)O)c(N[C@@H]5CCNC5)c4)c3n2)c1 [Example 31, (R)-4-(3-(3,5-dimethylphenyl)-5H-pyrrolo[2,3-b]pyrazin-5-yl)-2-(pyrrolidin-3-ylamino)benzoic Acid]
– | – | < 100 nM | Cc1cc(C)cc(-c2cnc3ccn(-c4ccc(C(=O)O)c(N[C@H]5CCNC5)c4)c3n2)c1 [Example 32, (S)-4-(3-(3,5-dimethylphenyl)-5H-pyrrolo[2,3-b]pyrazin-5-yl)-2-(pyrrolidin-3-ylamino)benzoic Acid]
– | – | < 100 nM | Cc1cc(C)cc(-c2cnc3ccn(-c4ccc(C(=O)O)c(N[C@@H]5CCCNC5)c4)c3n2)c1 [Example 33, (R)-4-(3-(3,5-dimethylphenyl)-5H-pyrrolo[2,3-b]pyrazin-5-yl)-2-(piperidin-3-ylamino)benzoic Acid]
– | – | < 100 nM | Cc1cc(C)cc(-c2cnc3ccn(-c4ccc(C(=O)O)c(NC5CCNCC5)c4)c3n2)c1 [Example 34, 4-(3-(3,5-dimethylphenyl)-5H-pyrrolo[2,3-b]pyrazin-5-yl)-2-(piperidin-4-ylamino)benzoic Acid]
– | – | 100 to 1000 nM | Cc1cc(C)cc(-c2cnc3ccn(-c4ccc(C(=O)O)c(O[C@@H]5CCNC5)c4)c3n2)c1 [Example 35, (R)-4-(3-(3,5-dimethylphenyl)-5H-pyrrolo[2,3-b]pyrazin-5-yl)-2-(pyrrolidin-3-yloxy)benzoic Acid]
